“Also recorded” adds a separate entry of the source.
Columns and labels:
[1] = test system: 5/6 nephrectomized (Nx) rat model; experiment: 5/6 nephrectomized (Nx) rat model, Compound XIV by gastric gavage once daily; assay type: in vivo, male Wistar rats; settings: Nx rats, p<0.01
Source text: Male 6 week-old Wistar rats were subjected to 5/6 nephrectomy or sham operations. Under fluothane anesthesia, renal ablation was achieved by removing two-thirds of the left kidney followed by a right unilateral nephrectomy 7 days later. Sham rats underwent exposition of the kidneys and removal of the perirenal fat. Animals that underwent the sham operation were given vehicle (saline) and were used as controls. Nx animals were divided in groups receiving the vehicle or Compound XIV. Saline or Compound XIV was given by gastric gavage once daily up to the sacrifice. Serum glucose was measured every three weeks in order to assess the effect of the compound on serum glucose concentration in a renal disease model. Rats were sacrificed at day 126.

[2] = test system: diabetic mouse (db/db) model; experiment: Diabetic db/db uninephrectomized mouse model, oral Compound I; assay type: in vivo, male Lepr db (db/db) mice; settings: 100 mg/kg per day oral; day 69 to day 128; FIG. 7
Description: Male Lepr db (db/db) and age- and sex-matched control mice with the same genetic background (C57BL/6) were used. Animals were randomized using blood sugar measurement (5-hours starved) at week 6 and uninephrectomy (removal of right kidney) was performed. Sham animals (C57BL/6) underwent exposition of the right kidney. Animals that underwent the sham operation were given vehicle (saline) and were used as negative controls. C57BL/6 mice that were uninephrectomized were given vehicle and were used as positive controls. Db/db mice were treated with oral administration of compound I at 100 mg/kg per day for 131 days. Serum glucose was measured every two to four weeks. Oral glucose tolerance test was performed on 16-hours starved mice at day 112. […] Fluorescence was determined and GFR calculated based on a two-compartment model using nonlinear regression curve-fitting software.

[3] = test system: streptozotocin-induced diabetes; experiment: Streptozotocin-induced diabetes model in rats, oral Compound I; assay type: in vivo, male Sprague Dawley rats
Description: Diabetes was induced by a single intraperitoneal administration of streptozotocin (65 mg/kg of body weight) in fasted male Sprague Dawley rats, weighing approximately 200-250 g. After 48 hours, rats with plasma glucose more than 10 mmole/L were enrolled and treated with vehicle or compounds. Streptozotocin is well known to induce […] toxicity. […] Ketonuria is a medical condition in which ketone bodies are present in the urine. It is seen in conditions in which the body produces excess ketones as an alternative source of energy. It is seen during starvation or more commonly in diabetes. […] Proteinuria is a medical condition in which an excess of protein is present in the urine. Proteinuria may be a sign of renal kidney damage. Since serum proteins are readily reabsorbed from urine, the presence of excess protein indicates either an insufficiency of absorption or impaired filtration. Diabetics may suffer from damaged nephrons and develop proteinuria. The most common cause of proteinuria is diabetes. […] Despite the available therapies of glycemic and blood pressure control, many patients continue to show progressive renal damage. Therefore, it is extremely important to identify novel interventions to halt the progression of diabetic nephropathy.

`CCCCCCCCC(Oc1ccc(C(=O)CCCCCCC)cc1)C(=O)[O-].[Na+]` (racemic) [Compound XIV, Sodium (RS)-2-[4-octanoylphenoxy]decanoate] was tested, and the urinary proteins concentration ([1]; 10 mg/kg, day 84 and 126, FIG. 6) was “significant (p<0.01) decrease” and the serum glucose concentration ([1]; 50 mg/kg, day 42 to day 126, FIG. 5) was “significant (p<0.01) decrease”.
For `CCCCCc1cccc(CC(=O)[O-])c1.[Na+]` [Compound I], the “serum glucose concentration (percent increase vs C57BL/6 sham)” value [2] was “significant decrease”, the “level of increase in blood glucose (delta)” value ([3]; 100 mg/kg oral, day 2 to day 62 post-streptozotocin, p<0.05, FIG. 1) was “decrease significantly” and the “urinary protein (proteinuria)” value ([3]; 100 mg/kg oral, vs STZ+ (diabetic) animals, FIG. 3) was “completely abbrogated the presence of urinary protein”. The “ketone bodies in urine” value ([3]; streptozotocin-diabetic rats, treated vs untreated, p<0.05, FIG. 2) was “significantly reduce the appearance of ketone bodies in the urine; also recorded: significantly (p<0.05) reduced”.
